Laboratory results: patent publication US20180362993A1, “ELICITOR-DERIVED PEPTIDES AND USE THEREOF” (Plant Health Care, Inc., priority 2017, published 2018)
Marks after values point to notes of the source that are not given here.

What was measured:
Format in all cases: in vivo
soy = assay: Drought resistance in seed-treated soy; conditions: vs mock
Description: The effectiveness of peptide treatment in reducing drought stress was assessed in soy using a seed treatment strategy. This strategy largely mirrors examples 3 and 4.
Seeds were first sieved using mesh screens to a uniform size (14-17 mesh). The seeds were then coated with a mixture of peptide and Unicoat™ seed coat polymer in a Hege 11 Liquid Seed Treater (Wintersteiger) according to manufacturer recommendations. […]
3.5 inch pots were filled (approximately 0.2 L per pot) with Sunshine #1 mix (SunGro Horticulture), fertilized with 14-14-14 N,P,K Osmocote (Everris), and mixed for 20 minutes using a soil mixer M-5. Seeds were planted at a depth of 0.5 inch for germination. The pots were immediately irrigated by submergence then drained after about an hour. For each treatment group, 24 replicate seeds were planted. Plants were grown in a greenhouse under 16 hour light days at ˜75° F. and 8 hour dark nights at ˜65° F. Prior to drought conditions, the plants were well-watered.
Seven days after germination the heights of the plants were measured. This was determined as the distance between the soil surface and the shoot apical meristems (buds). The plants were randomized using a complete block design and subjected to a cyclic drought stress. Drought stress was imposed by withholding water for 3-4 days until the majority of plants were under medium to severe water stress. The severity of the stress was determined by the weight of the pot and visual determination of loss of turgor in the leaves (drooping). Once drought stress was attained, the pots were watered to full saturation. Full Saturation (100% pot capacity) is defined as the weight of the pot filled with water-saturated soil minus the weight of the filled pot prior to adding water. Drought stress was imposed for a total of 18 days.
At the end of the experiment (18 days after initiation of drought stress), the plant above the soil surface was then harvested for fresh and dry weights. Individual plants were cut near the soil surface and weighed immediately (fresh weight). The plants were then placed into labeled brown paper bags and dried in a 70° C. oven for 72 hours. A dry weight was then obtained. The following calculation was performed on the collected data: Fresh weight at harvest, and dry weight at harvest for the peptide-treated plants were expressed as a % change relative to the ‘mock’ treated plants.

[1] = test system: tobacco mosaic virus (TMV); assay: Induction of resistance to tobacco mosaic virus in tobacco (foliar spray); conditions: 20 μg/ml spray; for Effectiveness Covered (% decline in TMV lesions vs UTC): covered leaf (systemic response); for Effectiveness Uncovered (% decline in TMV lesions vs UTC): uncovered leaf (local response)
Description: Peptides were tested for the induction of resistance to tobacco mosaic virus (TMV) in tobacco. Briefly, three tobacco plants at 6-8 weeks old were selected per group (samples and controls). The bottom-most leaf of the plant was covered and the plant was sprayed with a solution of water (untreated control—UTC), peptide, or Proact (positive control). The spray was applied until the leaves were fully wetted, indicated by liquid dripping from the leaves. The plants were then allowed to dry and the leaf covering was removed.
Three days post-treatment, the previously-covered leaf and a leaf on the opposite side of the plant were then lightly dusted with diatomaceous earth and 20 ul of a 1.7 μg/ml solution of purified tobacco mosaic virus was applied. The TMV solution was then spread across the leaf surface by lightly rubbing solution and the diatomaceous earth across the surface of the leaves. Two minutes after inoculation, the diatomaceous earth was rinsed off the leaves with water. 3 days after TMV inoculation, the leaves were scored based on the number of TMV lesions observed. The leaf was also scored for signs of the hypersensitive response, including yellowing and wilting of the affected leaves.
Effectiveness described in Table 5 refers to the % decline in TMV lesions on treated vs UTC plants. A reduction of TMV on covered leaves indicates a systemic immune response in the plant while reduction on uncovered leaves indicates a local response. Asterisks indicate that the P-value derived from a T-test was <0.05.

corn = assay: Drought resistance in corn (foliar spray); conditions: for Dry Weight Increase / Fresh Weight Increase: corn, vs untreated control
Description: The effectiveness of peptide treatment in reducing drought stress was assessed in corn. 3.5 inch pots were filled with Sunshine #1 soil (SunGro Horticulture), fertilized with a 20-10-20 mixture. The soil was soaked and drained overnight. Seeds (either corn or soy, manually inspected to ensure uniform seed size) were planted at a depth of 1 inch for germination. Plants were grown in a greenhouse under 16 hour light days at >70° F. and 8 hour dark nights at >65° F. Prior to drought conditions, the plants were well-watered.
When the plants reached the V1 stage, plants were culled to achieve a uniform height (abnormally large and small plants were removed). Plants were then randomly assigned to control (spray without peptide) or treatment (spray with peptide) groups and heights were measured. Peptide was made up in a solution of 0.2 μg/ml or 2μg/ml in distilled water+0.01% Tween-20, and applied as a fine mist from a spray bottle until the solution drips from the leaves. After the peptide solutions were dried, the plants were again randomized in a randomized complete block design. Drought stress was initiated after the peptide treatment. This was caused by maintaining the water level at 25-50% of the maximum capacity for water (capacity was decided as the weight of the pot filled with saturated soil minus the weight of the filled pot prior to adding water).
The drought test phase ended after 2-3 weeks. At that time, the plant height was again measured and the growth rate was calculated as the difference between this and the previously-recorded height. The above-ground part portions of the plants were harvested and weighed to obtain fresh weight. The above-ground portion was also dried in an oven at 70° C. for 72 hours to obtain dry weight. All calculations were compared with matched untreated control plants.
The drought testing procedure was carried out in corn using a treatment of P12, P13-10, P13-11, P13-12, P13-14, P13-4, and P13-15 (SEQ ID NOs: 5, 16, 17, 18, 20, 10, and 21). Asterisks indicate statistical significance by P-value (*: P<0.1 and **: P<0.05)

Sequence	% Change Dry Weight (soy; soy seed treatment 0.9 μg/seed) [%]	% Change Fresh Weight (soy; soy seed treatment 0.9 μg/seed) [%]	Effectiveness Covered (% decline in TMV lesions vs UTC) [1] [%]	Effectiveness Uncovered (% decline in TMV lesions vs UTC) [1]	Drought tolerance activity in corn, result in words (corn; corn foliar spray)	Dry Weight Increase (corn; foliar spray 0.2 μg/ml)	Fresh Weight Increase (corn; foliar spray 0.2 μg/ml)	% Change Dry Weight (soy; soy seed treatment 0.1 μg/seed) [%]	% Change Fresh Weight (soy; soy seed treatment 0.1 μg/seed) [%]	Dry Weight Increase (corn; foliar spray 2 μg/ml)	Fresh Weight Increase (corn; foliar spray 2 μg/ml) [%]
AGQTSGMSPMEQLMKIFADITQSLFGDQDG (P13-12 peptide) [Peptide P13-12]	−0.37	0.77	37.9	44.1%	affords activity	7.31* %	3.93* %				
DDSLSGAGQTSGMSPMEQLMKIFADITQSLFGDQDG (P13-10 peptide) [Peptide P13-10]			92.4	90.6* %				−1.66	1.01	7.56* %	4.44
LSGAGQTSGMSPMEQLMKIFADITQSLFGDQDG (P13-11 peptide) [Peptide P13-11]	0.16	3.42	73.1	74.9* %		4.91* %	3.81* %				
